Reference: ChEMBL document CHEMBL1138654, “Ring nitrogen-substituted non-steroidal estrogens: pyridine and pyrimidine analogs of the phenol in deoxyhexestrol experience resonance constraints on preferred ligand conformation” (Bioorg Med Chem Lett, 2004)

How the values were obtained:
[1] = biological target: Estrogen receptor beta (Homo sapiens) (UniProt Q92731); experiment: Inhibition of [3H]estradiol binding to human estrogen receptor beta
[2] = biological target: T1, Estrogen receptor (Homo sapiens) (UniProt P03372); experiment: Inhibition of [3H]estradiol binding to human estrogen receptor alpha
T1 sequence (whole entry): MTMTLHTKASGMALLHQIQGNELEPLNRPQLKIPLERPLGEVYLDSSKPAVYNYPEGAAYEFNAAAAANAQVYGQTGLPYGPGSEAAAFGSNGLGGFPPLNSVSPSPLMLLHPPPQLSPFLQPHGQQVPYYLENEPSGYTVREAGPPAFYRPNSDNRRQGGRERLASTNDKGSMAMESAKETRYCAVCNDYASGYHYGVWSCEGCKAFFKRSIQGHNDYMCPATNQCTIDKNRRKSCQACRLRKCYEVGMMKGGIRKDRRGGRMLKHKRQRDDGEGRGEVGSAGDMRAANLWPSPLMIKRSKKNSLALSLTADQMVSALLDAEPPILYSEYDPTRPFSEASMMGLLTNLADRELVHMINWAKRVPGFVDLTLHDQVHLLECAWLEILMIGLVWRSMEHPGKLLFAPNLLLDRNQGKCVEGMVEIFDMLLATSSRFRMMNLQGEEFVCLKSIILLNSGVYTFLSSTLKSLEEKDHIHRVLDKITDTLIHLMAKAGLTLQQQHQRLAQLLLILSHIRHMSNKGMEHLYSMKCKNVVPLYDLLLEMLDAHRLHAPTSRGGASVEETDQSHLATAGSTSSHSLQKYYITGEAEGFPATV

[3] = pKa was determined; format: physicochemical

Chain of Estrogen receptor beta (Homo sapiens) (Q92731 whole entry): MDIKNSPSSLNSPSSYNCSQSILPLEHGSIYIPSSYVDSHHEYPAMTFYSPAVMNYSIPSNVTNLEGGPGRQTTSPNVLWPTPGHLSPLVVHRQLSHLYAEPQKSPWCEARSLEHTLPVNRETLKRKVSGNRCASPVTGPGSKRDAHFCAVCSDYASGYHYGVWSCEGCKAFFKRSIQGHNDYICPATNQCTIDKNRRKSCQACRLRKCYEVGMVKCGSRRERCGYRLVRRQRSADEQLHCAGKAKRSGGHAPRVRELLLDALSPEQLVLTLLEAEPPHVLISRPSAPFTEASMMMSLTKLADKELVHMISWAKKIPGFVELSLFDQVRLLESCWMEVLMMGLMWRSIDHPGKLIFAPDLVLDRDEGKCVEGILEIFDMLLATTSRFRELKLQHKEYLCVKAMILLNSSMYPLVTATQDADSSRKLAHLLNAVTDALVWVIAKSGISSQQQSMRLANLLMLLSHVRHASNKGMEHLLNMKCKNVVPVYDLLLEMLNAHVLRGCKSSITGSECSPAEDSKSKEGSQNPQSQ

Row | relative binding affinity (RBA) [1] | relative binding affinity (RBA) [2] | pKa [3] | Compound
1 | 40 | 2.2 | – | CC(c1ccc(O)cc1)C(C)c1ccc(O)cc1 (stereo not drawn)
2 | – | – | 3.9 | CCC(c1ccccc1)N(CC)c1ncc(O)cn1 (stereo not drawn)
